The subject of this series is CCRIS mutagenicity, Ames/micronucleus/aberration tests. The series can be described thus: CCRIS mutagenicity studies.
[1] abbreviates: Test System: AMES SALMONELLA TYPHIMURIUM, Strain/Indicator: TA97, Metabolic Activation: HAMSTER, LIVER, S-9, AROCLOR 1254 (10 OR 30%), Method: PREINCUBATION
Setting [2] is: Test System: AMES SALMONELLA TYPHIMURIUM, Strain/Indicator: TA97, Metabolic Activation: NONE, Method: PREINCUBATION
The mark [3] stands for this setting: Test System: AMES SALMONELLA TYPHIMURIUM, Strain/Indicator: TA97, Metabolic Activation: RAT, LIVER, S-9, AROCLOR 1254 (10 OR 30%), Method: PREINCUBATION
Where [4] appears, read: Test System: AMES SALMONELLA TYPHIMURIUM, Strain/Indicator: TA98, Metabolic Activation: NONE, Method: PREINCUBATION
Where [5] appears, read: Test System: AMES SALMONELLA TYPHIMURIUM, Strain/Indicator: TA98, Metabolic Activation: RAT, LIVER, S-9, AROCLOR 1254 (10 OR 30%), Method: PREINCUBATION
The mark [6] stands for this setting: Test System: AMES SALMONELLA TYPHIMURIUM, Strain/Indicator: TA100, Metabolic Activation: NONE, Method: PREINCUBATION
[7] abbreviates: Test System: AMES SALMONELLA TYPHIMURIUM, Strain/Indicator: TA100, Metabolic Activation: RAT, LIVER, S-9, AROCLOR 1254 (10 OR 30%), Method: PREINCUBATION
The mark [8] stands for this setting: Test System: AMES SALMONELLA TYPHIMURIUM, Strain/Indicator: TA1535, Metabolic Activation: NONE, Method: PREINCUBATION
Where [9] appears, read: Test System: AMES SALMONELLA TYPHIMURIUM, Strain/Indicator: TA98, Metabolic Activation: NONE, Method: STANDARD PLATE.
Setting [10] is: Test System: AMES SALMONELLA TYPHIMURIUM, Strain/Indicator: TA100, Metabolic Activation: NONE, Method: STANDARD PLATE.

SMILES strings stand for the structures. The source made the active and inactive calls. The rule behind the calls is not given here.

On to `Nc1cc(Cl)cc(S(=O)(=O)O)c1O`, for which the mutagenic call runs as follows: under setting [1], “inactive; negative”; under setting [2], “inactive; negative”; under setting [3], “inactive; negative”; (Test System: AMES SALMONELLA TYPHIMURIUM, Strain/Indicator: TA98, Metabolic Activation: HAMSTER, LIVER, S-9, AROCLOR 1254 (10 OR 30%), Method: PREINCUBATION) “inactive; negative”; under setting [4], “inactive; negative”; under setting [5], “inactive; negative”. Moreover, the mutagenic call runs as follows: (Test System: AMES SALMONELLA TYPHIMURIUM, Strain/Indicator: TA100, Metabolic Activation: HAMSTER, LIVER, S-9, AROCLOR 1254 (10 OR 30%), Method: PREINCUBATION) “inactive; negative”; under setting [6], “inactive; negative”; under setting [7], “inactive; negative”; (Test System: AMES SALMONELLA TYPHIMURIUM, Strain/Indicator: TA1535, Metabolic Activation: HAMSTER, LIVER, S-9, AROCLOR 1254 (10 OR 30%), Method: PREINCUBATION) “inactive; negative”; under setting [8], “inactive; negative”; (Test System: AMES SALMONELLA TYPHIMURIUM, Strain/Indicator: TA1535, Metabolic Activation: RAT, LIVER, S-9, AROCLOR 1254 (10 OR 30%), Method: PREINCUBATION) “inactive; negative”.

Take `Fc1cccc2cccnc12`: the mutagenic call was “active; positive, described as marginally clastogenic at nontoxic doses. (information de” (End Point: In vitro chromosomal aberrations, Test System: Chinese hamster lung fibroblast cells (CHL/IU), Metabolic Activation: Rat, Liver, S-9); “inactive; negative, cytotoxic at 0.2 mg/ml. (information derived from a figure)” (End Point: In vitro micronucleus, Test System: Chinese hamster lung fibroblast cells (CHL/IU), Metabolic Activation: Rat, Liver, S-9); “active; positive” (Test System: AMES SALMONELLA TYPHIMURIUM, Strain/Indicator: TA100, Metabolic Activation: RAT LIVER S-9, PHENOBARBITAL AND 5,6-BENZOFLAVONE, Method: PREINCUBATION); “active; positive” (Test System: AMES SALMONELLA TYPHIMURIUM, Strain/Indicator: TA100, Metabolic Activation: RAT, LIVER, S-9, AROCLOR 1254, Method: PREINCUBATION); “active; positive” (Test System: AMES SALMONELLA TYPHIMURIUM, Strain/Indicator: TA100, Metabolic Activation: RAT, LIVER, S-9, PHENOBARBITAL AND 5,6-BENZOFLAVONE, Method: PREINCUBATION); “active; positive” (Test System: AMES SALMONELLA TYPHIMURIUM, Strain/Indicator: TA100, Metabolic Activation: RAT, LIVER, S-9, PHENOBARBITAL AND 5,6-NAPHTHOFLAVONE, Method: PREINCUBATION). Also, the mutagenic call reads like this: (Test System: AMES SALMONELLA TYPHIMURIUM, Strain/Indicator: TA100, Metabolic Activation: S-9, Method: PREINCUBATION) “active; positive”; (Test System: UDS RODENT HEPATOCYTES, Strain/Indicator: THY INCORP (NON-S-PHASE), Metabolic Activation: NONE, Method: AUTORADIOGRAPHY) “active; positive”.

`O=Nc1ccc(O)cc1`: the mutagenic call was “inactive; negative” under setting [1]; “inactive; negative” under setting [2]; “inactive; negative” under setting [3]; “inactive; negative” (Test System: AMES SALMONELLA TYPHIMURIUM, Strain/Indicator: TA98, Metabolic Activation: HAMSTER, LIVER, S-9, AROCLOR 1254 (10%), Method: PREINCUBATION); “active; positive” (Test System: AMES SALMONELLA TYPHIMURIUM, Strain/Indicator: TA98, Metabolic Activation: HAMSTER, LIVER, S-9, AROCLOR 1254 (30%), Method: PREINCUBATION); “active; positive” under setting [4]. Further, the mutagenic call is “inactive; negative” under setting [5]; “inactive; negative” (Test System: AMES SALMONELLA TYPHIMURIUM, Strain/Indicator: TA100, Metabolic Activation: HAMSTER, LIVER, S-9, AROCLOR 1254 (10%), Method: PREINCUBATION); “active; positive” (Test System: AMES SALMONELLA TYPHIMURIUM, Strain/Indicator: TA100, Metabolic Activation: HAMSTER, LIVER, S-9, AROCLOR 1254 (30%), Method: PREINCUBATION); “inactive; negative” under setting [6]; “inactive; negative” under setting [7]; “inactive; negative” (Test System: AMES SALMONELLA TYPHIMURIUM, Strain/Indicator: TA1535, Metabolic Activation: HAMSTER, LIVER, S-9, AROCLOR 1254 (10%), Method: PREINCUBATION). In addition, the mutagenic call by setting is: under setting [8], “inactive; negative”; (Test System: AMES SALMONELLA TYPHIMURIUM, Strain/Indicator: TA1535, Metabolic Activation: RAT, LIVER, S-9, AROCLOR 1254 (10%), Method: PREINCUBATION) “inactive; negative”.

`COc1cc([N+](=O)[O-])c(O)c(C(C)(C)C)c1`: the mutagenic call by setting is: under setting [9], “inactive; negative”; (Test System: AMES SALMONELLA TYPHIMURIUM, Strain/Indicator: TA98, Metabolic Activation: RAT, LIVER, S-9, AROCLOR 1254, Method: STANDARD PLATE) “inactive; negative”; under setting [10], “inactive; negative”; (Test System: AMES SALMONELLA TYPHIMURIUM, Strain/Indicator: TA100, Metabolic Activation: RAT, LIVER, S-9, AROCLOR 1254, Method: STANDARD PLATE) “inactive; negative”.

As for `Cc1cc(-c2ccccc2)cc(C)c1N`, the mutagenic call runs as follows: under setting [9], “inactive; negative”; (Test System: AMES SALMONELLA TYPHIMURIUM, Strain/Indicator: TA98, Metabolic Activation: RAT LIVER S-9, AROCLOR, Method: STANDARD PLATE) “active; positive”; under setting [10], “inactive; negative”; (Test System: AMES SALMONELLA TYPHIMURIUM, Strain/Indicator: TA100, Metabolic Activation: RAT LIVER S-9, AROCLOR, Method: STANDARD PLATE) “active; positive”.

Turning to `CC(=O)CC(=O)Nc1ccc(O)cc1`, the mutagenic call reads like this: (Test System: AMES SALMONELLA TYPHIMURIUM, Strain/Indicator: TA100, Metabolic Activation: HAMSTER, LIVER, S-9, KANECHLOR 400, Method: PREINCUBATION) “inactive; negative”; under setting [6], “inactive; negative”.

Regarding `CC(C)OC(=O)COc1ccc(Cl)cc1Cl`, the mutagenic call is “inactive; negative” under setting [9]; “inactive; negative” (Test System: AMES SALMONELLA TYPHIMURIUM, Strain/Indicator: TA98, Metabolic Activation: RAT LIVER S-9, AROCLOR 1254, 10%, Method: STANDARD PLATE); “inactive; negative” under setting [10]; “inactive; negative” (Test System: AMES SALMONELLA TYPHIMURIUM, Strain/Indicator: TA100, Metabolic Activation: RAT LIVER S-9, AROCLOR 1254, 10%, Method: STANDARD PLATE); “inactive; negative” (Test System: AMES SALMONELLA TYPHIMURIUM, Strain/Indicator: TA1535, Metabolic Activation: NONE, Method: STANDARD PLATE); “inactive; negative” (Test System: AMES SALMONELLA TYPHIMURIUM, Strain/Indicator: TA1535, Metabolic Activation: RAT LIVER S-9, AROCLOR 1254, 10%, Method: STANDARD PLATE). The mutagenic call is “inactive; negative” (Test System: AMES SALMONELLA TYPHIMURIUM, Strain/Indicator: TA1537, Metabolic Activation: NONE, Method: STANDARD PLATE); “inactive; negative” (Test System: AMES SALMONELLA TYPHIMURIUM, Strain/Indicator: TA1537, Metabolic Activation: RAT LIVER S-9, AROCLOR 1254, 10%, Method: STANDARD PLATE); “inactive; negative” (Test System: AMES SALMONELLA TYPHIMURIUM, Strain/Indicator: TA1538, Metabolic Activation: NONE, Method: STANDARD PLATE); “inactive; negative” (Test System: AMES SALMONELLA TYPHIMURIUM, Strain/Indicator: TA1538, Metabolic Activation: RAT LIVER S-9, AROCLOR 1254, 10%, Method: STANDARD PLATE); “inactive; negative” (Test System: UDS RAT HEPATOCYTES, Strain/Indicator: THYMIDINE INCORPORATION, Metabolic Activation: NONE, Method: AUTORADIOGRAPHY).

For the origin of these results see PubChem BioAssay AID1259407 (Chemical Carcinogenesis Research Information System (CCRIS), 2018).
